Kd data for 11 molecules are collected here from ChEMBL document CHEMBL3991601, “The target landscape of clinical kinase drugs” (Science, 2017).

Where a name gives a salt, the structure may show the parent alone. Activity calls are given as the source filed them. Cut-off read from the data, not from the text of the source, for most assays here: actives have a measured Kd and inactives only a lower limit.

Experiment [1] has as its target T1, Dual specificity mitogen-activated protein kinase kinase 5 (Homo sapiens, UniProt Q13163).
T1 sequence (Q13163 whole entry): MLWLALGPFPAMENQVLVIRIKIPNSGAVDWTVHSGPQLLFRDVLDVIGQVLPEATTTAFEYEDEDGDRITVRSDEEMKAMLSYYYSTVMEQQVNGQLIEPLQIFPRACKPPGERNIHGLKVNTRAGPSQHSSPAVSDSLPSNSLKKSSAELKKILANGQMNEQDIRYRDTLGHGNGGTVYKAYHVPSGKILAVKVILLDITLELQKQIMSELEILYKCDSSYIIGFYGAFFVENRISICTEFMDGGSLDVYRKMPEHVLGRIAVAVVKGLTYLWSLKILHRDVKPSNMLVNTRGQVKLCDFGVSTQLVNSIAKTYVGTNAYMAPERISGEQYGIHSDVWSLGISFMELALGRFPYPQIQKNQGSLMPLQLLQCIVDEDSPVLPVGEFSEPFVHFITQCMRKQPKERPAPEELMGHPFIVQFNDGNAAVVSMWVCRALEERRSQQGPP

Experiment [2] concerns the target T2, Serine/threonine-protein kinase ULK3 (Homo sapiens, UniProt Q6PHR2).
T2 sequence (Q6PHR2 whole entry): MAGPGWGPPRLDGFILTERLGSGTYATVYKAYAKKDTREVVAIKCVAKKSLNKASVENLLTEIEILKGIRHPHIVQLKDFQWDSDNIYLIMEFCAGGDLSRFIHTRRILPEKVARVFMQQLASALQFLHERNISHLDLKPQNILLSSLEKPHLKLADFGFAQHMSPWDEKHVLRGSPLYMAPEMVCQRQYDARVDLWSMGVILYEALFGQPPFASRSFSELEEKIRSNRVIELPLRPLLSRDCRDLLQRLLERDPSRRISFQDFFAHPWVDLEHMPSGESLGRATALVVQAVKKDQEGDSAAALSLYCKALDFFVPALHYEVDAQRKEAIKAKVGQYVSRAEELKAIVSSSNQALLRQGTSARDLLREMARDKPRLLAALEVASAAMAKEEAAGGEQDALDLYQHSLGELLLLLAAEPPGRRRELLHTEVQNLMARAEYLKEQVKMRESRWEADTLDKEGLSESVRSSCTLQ

The target of experiment [3] is Serine/threonine-protein kinase SIK3 (Homo sapiens, UniProt Q9Y2K2).
Chain of Serine/threonine-protein kinase SIK3 (Q9Y2K2 whole entry): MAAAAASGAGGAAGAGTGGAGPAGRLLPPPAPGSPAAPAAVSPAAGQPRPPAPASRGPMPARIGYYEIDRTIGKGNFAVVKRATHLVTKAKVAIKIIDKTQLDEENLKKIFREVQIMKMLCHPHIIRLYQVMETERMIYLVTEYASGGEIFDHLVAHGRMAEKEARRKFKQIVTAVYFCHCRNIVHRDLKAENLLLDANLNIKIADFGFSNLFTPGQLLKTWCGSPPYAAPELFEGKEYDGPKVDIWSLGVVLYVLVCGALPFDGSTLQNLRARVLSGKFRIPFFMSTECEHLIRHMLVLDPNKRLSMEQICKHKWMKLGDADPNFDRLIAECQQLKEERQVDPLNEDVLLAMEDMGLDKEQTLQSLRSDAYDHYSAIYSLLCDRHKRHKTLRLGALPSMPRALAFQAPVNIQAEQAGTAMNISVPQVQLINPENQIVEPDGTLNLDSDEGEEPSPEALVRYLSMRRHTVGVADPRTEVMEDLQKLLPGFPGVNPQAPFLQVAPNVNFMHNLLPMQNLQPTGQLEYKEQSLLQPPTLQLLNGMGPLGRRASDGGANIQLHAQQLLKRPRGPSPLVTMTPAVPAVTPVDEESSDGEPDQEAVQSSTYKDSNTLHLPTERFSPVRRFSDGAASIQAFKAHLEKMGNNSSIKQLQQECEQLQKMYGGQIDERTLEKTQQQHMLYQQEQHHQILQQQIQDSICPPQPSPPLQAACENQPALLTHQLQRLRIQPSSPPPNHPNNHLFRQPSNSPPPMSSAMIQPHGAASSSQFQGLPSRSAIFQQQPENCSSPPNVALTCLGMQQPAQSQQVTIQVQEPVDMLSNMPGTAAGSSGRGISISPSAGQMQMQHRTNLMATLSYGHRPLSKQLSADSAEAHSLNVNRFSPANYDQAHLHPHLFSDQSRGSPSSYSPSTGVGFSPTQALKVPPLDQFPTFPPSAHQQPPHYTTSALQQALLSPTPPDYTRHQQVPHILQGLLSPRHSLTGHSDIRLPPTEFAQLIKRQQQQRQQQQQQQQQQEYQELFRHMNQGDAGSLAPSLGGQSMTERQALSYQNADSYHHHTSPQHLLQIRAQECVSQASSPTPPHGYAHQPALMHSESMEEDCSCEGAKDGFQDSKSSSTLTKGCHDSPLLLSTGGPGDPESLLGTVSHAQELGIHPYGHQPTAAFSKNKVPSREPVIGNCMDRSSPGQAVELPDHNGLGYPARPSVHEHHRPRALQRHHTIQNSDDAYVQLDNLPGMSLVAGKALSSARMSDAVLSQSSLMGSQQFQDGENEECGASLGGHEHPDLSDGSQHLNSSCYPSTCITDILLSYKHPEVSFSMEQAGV
The target in experiment [4] is Maternal embryonic leucine zipper kinase (Homo sapiens, UniProt Q14680).
Chain of Maternal embryonic leucine zipper kinase (Q14680 whole entry): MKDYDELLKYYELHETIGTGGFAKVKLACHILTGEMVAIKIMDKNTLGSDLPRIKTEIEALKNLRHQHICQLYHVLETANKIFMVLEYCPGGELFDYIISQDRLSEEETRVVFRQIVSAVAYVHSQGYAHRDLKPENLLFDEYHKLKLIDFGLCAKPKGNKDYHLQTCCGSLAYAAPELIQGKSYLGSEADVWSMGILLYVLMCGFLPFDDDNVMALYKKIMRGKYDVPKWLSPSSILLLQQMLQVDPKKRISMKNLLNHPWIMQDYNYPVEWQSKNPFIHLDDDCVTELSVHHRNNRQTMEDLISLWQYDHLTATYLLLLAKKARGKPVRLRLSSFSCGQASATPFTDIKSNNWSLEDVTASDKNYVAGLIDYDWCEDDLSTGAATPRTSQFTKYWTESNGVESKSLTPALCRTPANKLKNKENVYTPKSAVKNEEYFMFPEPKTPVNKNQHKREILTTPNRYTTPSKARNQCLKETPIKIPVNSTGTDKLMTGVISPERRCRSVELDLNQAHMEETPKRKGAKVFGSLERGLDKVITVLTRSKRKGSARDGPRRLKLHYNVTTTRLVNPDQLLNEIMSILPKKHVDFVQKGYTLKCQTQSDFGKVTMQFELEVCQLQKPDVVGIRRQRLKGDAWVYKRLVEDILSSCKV
The target in experiment [5] is Cyclin-dependent kinase 1 (Homo sapiens, UniProt P06493).
Chain of Cyclin-dependent kinase 1 (P06493 whole entry): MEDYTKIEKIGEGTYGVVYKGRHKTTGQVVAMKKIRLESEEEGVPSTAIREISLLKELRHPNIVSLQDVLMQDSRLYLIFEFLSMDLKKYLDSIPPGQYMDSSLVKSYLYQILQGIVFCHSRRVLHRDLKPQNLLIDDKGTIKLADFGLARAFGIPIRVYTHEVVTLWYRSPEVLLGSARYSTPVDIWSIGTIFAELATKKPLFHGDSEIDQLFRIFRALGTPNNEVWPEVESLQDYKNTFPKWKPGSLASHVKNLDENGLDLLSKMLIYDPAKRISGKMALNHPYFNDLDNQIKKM
Experiment [6] concerns the target T3, cGMP-dependent protein kinase 1 (Homo sapiens, UniProt Q13976).
T3 sequence (Q13976 whole entry): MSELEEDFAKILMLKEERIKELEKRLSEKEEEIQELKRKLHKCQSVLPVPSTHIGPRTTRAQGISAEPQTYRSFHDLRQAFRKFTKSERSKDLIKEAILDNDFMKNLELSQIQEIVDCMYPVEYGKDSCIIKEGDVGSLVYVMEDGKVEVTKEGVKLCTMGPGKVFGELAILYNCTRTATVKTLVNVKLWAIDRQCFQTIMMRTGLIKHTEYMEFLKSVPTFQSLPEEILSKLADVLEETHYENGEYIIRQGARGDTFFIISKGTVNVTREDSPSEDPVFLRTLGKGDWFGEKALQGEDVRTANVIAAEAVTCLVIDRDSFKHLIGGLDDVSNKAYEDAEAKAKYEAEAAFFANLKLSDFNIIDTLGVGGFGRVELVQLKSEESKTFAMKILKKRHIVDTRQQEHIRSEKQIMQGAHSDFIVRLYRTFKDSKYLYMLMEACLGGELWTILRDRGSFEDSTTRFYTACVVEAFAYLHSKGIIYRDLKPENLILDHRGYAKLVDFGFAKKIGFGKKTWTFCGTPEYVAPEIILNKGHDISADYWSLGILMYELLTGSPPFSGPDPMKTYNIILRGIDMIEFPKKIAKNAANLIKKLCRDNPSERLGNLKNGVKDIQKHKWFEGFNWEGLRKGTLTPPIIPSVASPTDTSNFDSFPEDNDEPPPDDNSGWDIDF

Experiment [7] addresses T4, Thyroid hormone receptor-associated protein 3 (Homo sapiens, UniProt Q9Y2W1).
T4 sequence (Q9Y2W1 whole entry): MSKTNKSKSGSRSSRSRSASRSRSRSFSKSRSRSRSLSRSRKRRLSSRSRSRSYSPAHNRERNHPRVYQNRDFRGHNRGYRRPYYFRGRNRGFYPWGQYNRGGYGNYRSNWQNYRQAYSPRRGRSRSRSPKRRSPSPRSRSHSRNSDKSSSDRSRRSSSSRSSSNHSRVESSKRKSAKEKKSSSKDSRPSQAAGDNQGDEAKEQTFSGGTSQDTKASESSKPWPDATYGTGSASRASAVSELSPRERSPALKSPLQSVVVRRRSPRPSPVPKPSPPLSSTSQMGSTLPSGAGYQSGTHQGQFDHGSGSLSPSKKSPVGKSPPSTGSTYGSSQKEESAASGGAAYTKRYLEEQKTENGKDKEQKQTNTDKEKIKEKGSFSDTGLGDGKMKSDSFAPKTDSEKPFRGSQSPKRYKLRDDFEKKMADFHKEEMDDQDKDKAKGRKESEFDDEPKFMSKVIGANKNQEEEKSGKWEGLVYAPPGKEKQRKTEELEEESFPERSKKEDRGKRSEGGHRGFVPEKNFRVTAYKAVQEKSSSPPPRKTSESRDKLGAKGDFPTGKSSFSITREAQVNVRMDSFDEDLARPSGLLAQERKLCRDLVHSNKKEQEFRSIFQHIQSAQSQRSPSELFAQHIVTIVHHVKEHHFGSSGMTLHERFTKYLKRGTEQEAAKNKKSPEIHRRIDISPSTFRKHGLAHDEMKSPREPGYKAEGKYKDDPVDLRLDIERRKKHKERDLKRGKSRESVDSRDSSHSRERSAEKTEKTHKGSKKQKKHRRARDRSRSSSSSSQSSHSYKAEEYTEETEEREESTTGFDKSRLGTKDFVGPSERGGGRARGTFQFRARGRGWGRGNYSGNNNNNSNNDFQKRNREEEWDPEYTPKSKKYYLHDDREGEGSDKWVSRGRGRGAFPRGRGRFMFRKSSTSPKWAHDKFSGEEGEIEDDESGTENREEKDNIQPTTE

For experiment [8], the target named is Tyrosine-protein kinase JAK1 (Homo sapiens, UniProt P23458).
Chain of Tyrosine-protein kinase JAK1 (P23458 whole entry): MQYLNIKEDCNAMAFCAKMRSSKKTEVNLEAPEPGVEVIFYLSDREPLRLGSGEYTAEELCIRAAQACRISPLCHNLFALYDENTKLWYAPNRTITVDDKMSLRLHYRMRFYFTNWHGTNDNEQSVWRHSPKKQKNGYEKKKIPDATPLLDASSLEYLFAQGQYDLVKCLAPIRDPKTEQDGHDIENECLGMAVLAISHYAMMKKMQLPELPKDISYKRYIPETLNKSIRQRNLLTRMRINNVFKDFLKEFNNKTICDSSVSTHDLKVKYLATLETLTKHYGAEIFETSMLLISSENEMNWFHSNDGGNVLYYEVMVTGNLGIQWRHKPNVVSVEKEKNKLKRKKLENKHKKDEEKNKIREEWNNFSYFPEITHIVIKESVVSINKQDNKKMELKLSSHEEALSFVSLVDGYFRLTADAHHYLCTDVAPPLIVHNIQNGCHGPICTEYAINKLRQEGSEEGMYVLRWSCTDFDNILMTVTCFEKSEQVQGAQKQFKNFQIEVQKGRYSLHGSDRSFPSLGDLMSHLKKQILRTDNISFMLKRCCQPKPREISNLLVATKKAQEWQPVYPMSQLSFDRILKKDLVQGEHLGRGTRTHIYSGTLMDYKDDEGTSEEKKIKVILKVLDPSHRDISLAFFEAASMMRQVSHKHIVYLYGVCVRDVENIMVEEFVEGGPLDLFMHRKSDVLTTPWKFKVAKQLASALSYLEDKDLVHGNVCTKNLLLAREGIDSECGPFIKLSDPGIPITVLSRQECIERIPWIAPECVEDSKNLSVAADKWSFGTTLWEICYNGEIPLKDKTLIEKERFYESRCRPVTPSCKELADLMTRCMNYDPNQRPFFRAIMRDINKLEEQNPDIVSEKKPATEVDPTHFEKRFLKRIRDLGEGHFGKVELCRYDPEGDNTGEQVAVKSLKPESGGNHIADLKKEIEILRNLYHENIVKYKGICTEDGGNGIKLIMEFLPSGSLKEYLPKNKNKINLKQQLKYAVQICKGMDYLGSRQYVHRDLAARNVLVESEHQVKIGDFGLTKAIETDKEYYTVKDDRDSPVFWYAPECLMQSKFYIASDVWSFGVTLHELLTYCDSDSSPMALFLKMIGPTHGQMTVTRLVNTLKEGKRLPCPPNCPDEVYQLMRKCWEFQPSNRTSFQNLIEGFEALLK
For experiment [9], the target named is Cyclin-dependent kinase 3 (Homo sapiens, UniProt Q00526).
Chain of Cyclin-dependent kinase 3 (Q00526 whole entry): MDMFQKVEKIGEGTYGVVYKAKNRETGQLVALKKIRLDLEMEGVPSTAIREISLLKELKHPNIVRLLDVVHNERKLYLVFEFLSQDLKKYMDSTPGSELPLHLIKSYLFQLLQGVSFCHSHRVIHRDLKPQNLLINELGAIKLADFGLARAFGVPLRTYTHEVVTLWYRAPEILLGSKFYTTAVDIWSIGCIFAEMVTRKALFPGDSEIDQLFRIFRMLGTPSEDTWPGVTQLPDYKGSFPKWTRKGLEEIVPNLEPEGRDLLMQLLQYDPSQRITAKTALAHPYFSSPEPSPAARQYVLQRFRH
Note: in the data inactive means no Kd found up to 30 µM.

Regarding `CCn1c(C(=O)N(C2CC2)C2CC2)cc2c3c(ncn3C)c(Nc3cc(C)n(C)n3)nc21` [BMS-911543], the Kd in experiment [1], in experiment [2], in experiment [3], in [4], in [5] and in [6] was > 30 µM (inactive) each time. In addition, the Kd in [7], in experiment [8] and in experiment [9] was > 30 µM (inactive) throughout.

Take `COc1cc2ncnc(Oc3cccc(NC(=O)Nc4cc(C(C)(C)C(F)(F)F)on4)c3)c2cc1OC` [CEP-32496]: the Kd in experiment [1], in experiment [2], in experiment [3], in [4], in [5] and in experiment [6] was > 30 µM (inactive) in each case. Besides, the Kd in experiment [7], in experiment [8] and in experiment [9] was > 30 µM (inactive) in each case.

With `Cc1cc(Nc2ncc(Cl)c(Nc3ccccc3S(=O)(=O)C(C)C)n2)c(OC(C)C)cc1C1CCNCC1` [CERITINIB], the Kd in [1], in [2], in experiment [3], in [4], in experiment [5] and in [6] was > 30 µM (inactive) throughout. In addition, the Kd in [7], in experiment [8] and in [9] was > 30 µM (inactive) each time.

As for `COCC(=O)NC/C=C/c1ccc2ncnc(Nc3ccc(Oc4ccc(C)nc4)c(C)c3)c2c1` [CP-724714], the equilibrium dissociation constant (Kd) (commonly the equilibrium constant for the complex coming apart) was 1.26 µM (active) in [1]; > 30 µM (inactive) in [2]; > 30 µM (inactive) in experiment [3]; > 30 µM (inactive) in experiment [4]; > 30 µM (inactive) in [5]; > 30 µM (inactive) in experiment [6]. The Kd in experiment [7], in experiment [8] and in experiment [9] was > 30 µM (inactive) each time.

With `C#Cc1cccc(Nc2ncnc3cc(OC)c(OCCCCCCC(=O)NO)cc23)c1` [CUDC-101], the Kd in experiment [1], in experiment [2], in experiment [3], in experiment [4], in experiment [5] and in experiment [6] was > 30 µM (inactive) throughout. Moreover, the Kd in experiment [7], in experiment [8] and in experiment [9] was > 30 µM (inactive) each time.

For `CCS(=O)(=O)N1CCN(c2ccc(Nc3ncc(C(N)=O)c(NC4CC4)n3)cc2)CC1` [Cerdulatinib Hydrochloride], the dissociation constant (Kd) is 0.656 µM (active) in experiment [1]; 0.655 µM (active) in [2]; 13.6 µM (active) in experiment [3]; > 30 µM (inactive) in experiment [4]; > 30 µM (inactive) in experiment [5]; > 30 µM (inactive) in [6]. For the same molecule, the Kd in [7] is > 30 µM (inactive); in experiment [8] it was 0.078 µM (active); in [9], > 30 µM (inactive).

For `COc1ccc(S(=O)(=O)N(C(C)=O)c2ccccc2/C=C/c2cc[n+]([O-])cc2)cc1` [HMN-214], the Kd in experiment [1], in experiment [2], in experiment [3], in experiment [4], in [5] and in [6] was > 30 µM (inactive) throughout. The Kd in experiment [7], in experiment [8] and in experiment [9] was > 30 µM (inactive) each time.

Take `NC1(c2ccc(-c3nc4ccn5c(=O)[nH]nc5c4cc3-c3ccccc3)cc2)CCC1` [MK-2206]: the Kd in experiment [1], in experiment [2], in experiment [3], in experiment [4], in [5] and in [6] was > 30 µM (inactive) throughout. Also, the Kd in experiment [7], in experiment [8] and in experiment [9] was > 30 µM (inactive) throughout.

As for `Cn1cc(-c2cnc3ccc4ccc(CS(=O)(=O)NCc5ccccn5)cc4c(=O)c3c2)cn1` [MK-8033], the Kd in [1], in experiment [2], in experiment [3], in experiment [4], in [5] and in experiment [6] was > 30 µM (inactive) each time. Further, the Kd in [7], in experiment [8] and in [9] was > 30 µM (inactive) in each case.

With `FC(F)(F)c1ccc(/C=C/c2nc(COc3ccc(CCCCn4ccnn4)cc3)co2)cc1` [MUBRITINIB], the Kd in [1], in experiment [2], in experiment [3], in experiment [4], in [5] and in experiment [6] was > 30 µM (inactive) throughout. In addition, the Kd in experiment [7], in [8] and in experiment [9] was > 30 µM (inactive) in each case.

Turning to `CCOc1cc2ncc(C#N)c(Nc3ccc(F)c(Cl)c3)c2cc1NC(=O)/C=C/CN(C)C` [PELITINIB], the Kd in experiment [1], in experiment [2], in [3], in experiment [4], in experiment [5] and in experiment [6] was > 30 µM (inactive) in each case. Also, the Kd in [7], in experiment [8] and in [9] was > 30 µM (inactive) each time.
